Laboratory results from patent EP0137692A2, “New antibiotic, neocopiamycin A and the production thereof” (Arai, Tadashi, Prof., priority 1983, dated 1985).

Key:
Solubility = assay type: physicochemical
Experimental: (§1) Neocopiamycin A has the following physico-chemical properties. • (1) Color and Appearance: neutral, colorless, hygroscopic powder. • (2) Melting point: 134 - 136°C. […] Neocopiamycin A gives negative reactions to biuret, ninhydrin, Molisch, Fehling, ferric chloride, Liebermann-Burchard, 2,4-dinitrophenylhydrazine reagents, but possitive reactions to Dragendorff, platinic iodide and Sakaguchi reagents. […] [formula] • (12) Chemical structure: • According to spectral data and physicochemical characteristics, the sturcture of neocopiamycin A can be presumed to have the following formula:- [drawing 3] • Neocopiamycin A has the following biological properties. • (13) Antimicrobial Activity • The minimum inhibitory concentration (MIC) of neocopiamycin A against bacteria, yeast and fungi were determined by a serial two-fold agar dilution method. […] The MICs were determined after incubation for 24 hours or 4 days at 37^*C for bacteria, and after incubation 24 hours to 7 days at 37°C for yeasts and fungi, depending on the test strain. • Antimicrobial spectrum of neocopiamycin A is given in Tables 2, 3 and 4 below. […] Antifungal spectra of copiamycin were similarly determined for the comparison purpose. […] [formula] • (14) Acute Toxicity • Acute toxicity of neocopiamycin A was determined with ddY mice weighing 20 to 21 g. […]

Gram-negative bacteria = test: MIC by serial two-fold agar dilution method (Muller-Hilton agar); assay type: cell-based; settings: 24 hours or 4 days at 37°C
Experimental: as §1

Gram-positive bacteria = test: as above; assay type: cell-based; settings: 24 hours or 4 days at 37°C
Experimental: as §1

yeasts and fungi = test: MIC by serial two-fold agar dilution method (Sabouraud dextrose agar); assay type: cell-based
Experimental: as §1, with “reagents. It also gives pinkish coloration with conc. sulfuric acid, which subsequently turned brown with time. • (8) Ultra violet absorption spectrum: As shown in Fig. 1 of the accompanying drawings. λ^MeOHmax 205 nm (log ε 4.2) • (9) Infrared absorption spectrum: As-shown in Fig. 2 of the accompanying drawing. IR (KBr)(cm^-1) : 3380, 2975, 2925, 1715, 1655, 1595, 1455, 1375, 1240, 1140, 1070, 975, 845. • (10) NMR spectrum: As shown in Fig. 3 of the accompanying drawing. • (11) Rf values of TLC: • A purified sample of neocopiamycin A gives only one spot when chromatographed on thin layer chromatography TLC (Silica gel 60, plate F254) in different solvent systems and bioautographed against Candida albicans or absorption of ultraviolet.” for “reagents.”

ddY mice = test: Acute toxicity; assay type: in vivo; settings: for dose tolerated by all mice for 14 days without any toxic signs: mouse, in vivo
Experimental: Neocopiamycin A has the following physico-chemical properties. • (1) Color and Appearance: neutral, colorless, hygroscopic powder. • (2) Melting point: 134 - 136°C. […] Neocopiamycin A gives negative reactions to biuret, ninhydrin, Molisch, Fehling, ferric chloride, Liebermann-Burchard, 2,4-dinitrophenylhydrazine reagents, but possitive reactions to Dragendorff, platinic iodide and Sakaguchi reagents. It also gives pinkish coloration with conc. sulfuric acid, which subsequently turned brown with time. • (8) Ultra violet absorption spectrum: As shown in Fig. 1 of the accompanying drawings. λ^MeOHmax 205 nm (log ε 4.2) • (9) Infrared absorption spectrum: As-shown in Fig. 2 of the accompanying drawing. IR (KBr)(cm^-1) : 3380, 2975, 2925, 1715, 1655, 1595, 1455, 1375, 1240, 1140, 1070, 975, 845. • (10) NMR spectrum: As shown in Fig. 3 of the accompanying drawing. • (11) Rf values of TLC: • A purified sample of neocopiamycin A gives only one spot when chromatographed on thin layer chromatography TLC (Silica gel 60, plate F254) in different solvent systems and bioautographed against Candida albicans or absorption of ultraviolet. The Rf values and solvent systems employed are summarized in Table 1. [formula] • (12) Chemical structure: • According to spectral data and physicochemical characteristics, the sturcture of neocopiamycin A can be presumed to have the following formula:- [drawing 3] • Neocopiamycin A has the following biological properties. • (13) Antimicrobial Activity • The minimum inhibitory concentration (MIC) of neocopiamycin A against bacteria, yeast and fungi were determined by a serial two-fold agar dilution method. The medium used was Muller-Hilton agar for bacteria, and Sabouraud dextrose agar for yeasts and fungi. The antibiotic was dissolved in a small amount of ethanol and diluted with sterilized water to give final agar media containing less than one percent of the organic solvent, which was not a harmful concentration against the organisms tested. The MICs were determined after incubation for 24 hours or 4 days at 37^*C for bacteria, and after incubation 24 hours to 7 days at 37°C for yeasts and fungi, depending on the test strain. • Antimicrobial spectrum of neocopiamycin A is given in Tables 2, 3 and 4 below. […] Furthermore, it should be pointed out that neocopiamycin A inhibits the growth of both the filamentous and yeast- like fungi at the concentrations below 10 µg/ml. […] Antifungal spectra of copiamycin were similarly determined for the comparison purpose. [formula] [formula] • (14) Acute Toxicity • Acute toxicity of neocopiamycin A was determined with ddY mice weighing 20 to 21 g. Neocopiamycin A was finely pulverized and suspended in 15% aqueous ethanol solution for intraveneous, intraperitoneal and oral administrations. […]

Trichomonas vaginalis = test: Growth inhibition in thioglycolate medium; assay type: cell-based; design: unit not given here; settings: thioglycolate medium with 0.5% dextrin and 15% bovine serum

SMILES: CC(CCC/C=C/CCCN=C(N)N)CC(C)C1OC(=O)C=CC(C)C(O)CC(O)C(C)C(O)CCC(C)C(O)CC2(O)OC(CC(OC(=O)CC(=O)O)CC(O)CC(O)C(C)C(O)/C=C\C1C)CC(O)C2O (stereo not drawn) [neocopiamycin A]
- Solubility (Solubility; acetone, dioxane, chloroform, carbon tetrachloride, ethyl acetate, butyl acetate, petroleum ether, benzene, methyl isobutyl ketone and water): sparingly soluble or insoluble
- Solubility (Solubility; methanol, ethanol, n-butanol, pyridine, dimethylformamide, glacial acetic acid): soluble
- antimicrobial activity against Gram-negative bacteria (Gram-negative bacteria): inactive
- antimicrobial activity against Gram-positive bacteria (Gram-positive bacteria): active
- concentrations inhibiting the growth of both the filamentous and yeast-like fungi (yeasts and fungi; Sabouraud dextrose agar, incubation 24 hours to 7 days at 37°C): below 10 µg/ml
- antimicrobial activity compared with copiamycin (yeasts and fungi; Tables 2, 3 and 4, comparison with copiamycin): much higher antimicrobial activity than copiamycin
- antimicrobial activity against fungi, yeasts (yeasts and fungi; wide range of fungi, yeasts, agar dilution): active
- toxicity compared with copiamycin (ddY mice; comparison with copiamycin): less toxic than copiamycin
- dose tolerated by all mice for 14 days without any toxic signs (ddY mice; ip, 336 h): more than 1,000 mg/kg
- dose tolerated by all mice for 14 days without any toxic signs (ddY mice; iv): 30
- dose tolerated by all mice for 14 days without any toxic signs (ddY mice; po, 336 h): more than 1,000 mg/kg
- concentration inhibiting the growth of Trichomonas vaginalis (Trichomonas vaginalis): 1.56
